The target in the experiment is BIKE kinase domain (biotinylated) (Homo sapiens, UniProt Q9NSY1). The experiment is described as follows: TR-FRET tracer displacement. Type of experiment: binding.
BIKE kinase domain (biotinylated), sequence (Q9NSY1 38-345 limits assumed): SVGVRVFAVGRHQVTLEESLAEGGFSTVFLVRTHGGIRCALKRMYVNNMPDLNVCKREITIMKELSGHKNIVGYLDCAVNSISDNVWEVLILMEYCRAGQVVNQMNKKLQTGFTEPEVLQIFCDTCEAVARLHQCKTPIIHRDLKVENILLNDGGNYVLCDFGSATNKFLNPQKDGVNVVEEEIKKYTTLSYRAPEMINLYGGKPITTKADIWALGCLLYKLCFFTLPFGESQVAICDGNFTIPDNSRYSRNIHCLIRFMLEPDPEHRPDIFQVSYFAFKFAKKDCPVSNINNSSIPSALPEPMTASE

In general, Ki refers to a measure of affinity in units of concentration, obtained from inhibition or displacement. Read a high Ki as weaker binding. In the case of `CC(C)C(=O)Nc1n[nH]c2cc(-c3cccc(NS(=O)(=O)C4CC4)c3)ccc12` [compound 2, N-(6-(3-(cyclopropanesulfonamido)phenyl)-1H-indazol-3-yl)isobutyramide], the affinity corresponds to a Ki of 3.1 µM.

Values taken from publication doi:10.1101/094631v2 (biorxiv, 2017).
